This is an account of results in ChEMBL document CHEMBL5055685, “Discovery of the First Potent IDO1/IDO2 Dual Inhibitors: A Promising Strategy for Cancer Immunotherapy” (J Med Chem, 2021).

Calls of active or inactive are those of the source. The rule behind the calls is not given here.

Assay [1] relates to HCT-116. The experiment in a line: Antitumor activity against human HCT-116 cells xenografted in BALB/c nude mouse assessed as tumor growth inhibition at 300 mg/kg, ig bid for 21 days by vernier caliper method. The assay is classed as functional, organism-based. The conditions noted are these: time 21.0 day. A general note: A xenograft is tissue or cells of one species grown in another, often human tumour cells in immunodeficient mice.

For assay [2], the system named is Mus musculus. Put plainly: In vivo inhibition of IDO1/IDO2 in BALB/c mouse xenografted with human HCT-116 cells assessed as downregulation of Foxp3 mRNA expression in tumor by quantitative RT-PCR analysis. The format is functional, organism-based.
Assay [3] deals with Mus musculus. Put plainly: In vivo inhibition of IDO1/IDO2 in BALB/c mouse xenografted with human HCT-116 cells assessed as downregulation of Foxp3 expression in tumor by immunohistochemical assay. The assay is classed as functional, organism-based.
In assay [4] the test system is CT26. The experiment in a line: Cytotoxicity against mouse CT26 cells assessed as reduction in cell viability by CCK8 assay. The format is functional, cell-based.
Assay [5] concerns Mus musculus. Put plainly: In vivo inhibition of IDO2 in BALB/c mouse xenografted with human HCT-116 cells assessed as suppression of IDO2 expression in tumor by immunohistochemical assay. The assay is classed as functional, organism-based.
In assay [6] the test system is Mus musculus. The experiment in a line: In vivo inhibition of TDO in BALB/c mouse xenografted with human HCT-116 cells assessed as suppression of TDO expression in tumor by immunohistochemical assay. The format is functional, organism-based.
In assay [7] the test system is HCT-116. Put plainly: Cytotoxicity against human HCT-116 cells assessed as reduction in cell viability by CCK8 assay. The format is functional, cell-based. On the technique in general: Tetrazolium assays rely on reduction of a dye to a coloured formazan, in cell work by metabolically active cells.
A further assay concerns HT-29. Put plainly: Cytotoxicity against human HT-29 cells assessed as reduction in cell viability by CCK8 assay. The format is functional, cell-based.
Assay [8] concerns CT26. Put plainly: Antitumor activity against mouse CT26 cells implanted in BALB/c mouse assessed as tumor growth inhibition at 50 mg/kg, ip bid for 28 days by vernier caliper method relative to control. To be noted: CT26, 672 h, time 28 day, read-out: TGI. The assay is classed as functional.
The test system of assay [9] is Mus musculus. The experiment in a line: In vivo inhibition of TDO in BALB/c mouse xenografted with human HCT-116 cells assessed as suppression of TDO mRNA expression in tumor by quantitative RT-PCR analysis. The format is functional, organism-based.
The subject of assay [10] is Mus musculus. The experiment in a line: In vivo inhibition of IDO2 in BALB/c mouse xenografted with human HCT-116 cells assessed as suppression of IDO2 mRNA expression in tumor by quantitative RT-PCR analysis. The format is functional, organism-based.
Assay [11] concerns the target Indoleamine 2,3-dioxygenase 1 (Homo sapiens, UniProt P14902).
A short description of assay [12]: Inhibition of IDO1/IDO2 in IFNgamma/LPS-stimulated human PBMCs assessed as reduction in kynurenine formation pretreated with compound for 15 mins followed by IFNgamma/LPS stimulation by LC-MS/MS analysis. The assay is classed as tissue-based. The conditions noted are these: PBMC.

For orientation: IC50 means the point on the concentration scale where inhibition reaches its midpoint.

Indoleamine 2,3-dioxygenase 1, sequence (P14902 whole entry): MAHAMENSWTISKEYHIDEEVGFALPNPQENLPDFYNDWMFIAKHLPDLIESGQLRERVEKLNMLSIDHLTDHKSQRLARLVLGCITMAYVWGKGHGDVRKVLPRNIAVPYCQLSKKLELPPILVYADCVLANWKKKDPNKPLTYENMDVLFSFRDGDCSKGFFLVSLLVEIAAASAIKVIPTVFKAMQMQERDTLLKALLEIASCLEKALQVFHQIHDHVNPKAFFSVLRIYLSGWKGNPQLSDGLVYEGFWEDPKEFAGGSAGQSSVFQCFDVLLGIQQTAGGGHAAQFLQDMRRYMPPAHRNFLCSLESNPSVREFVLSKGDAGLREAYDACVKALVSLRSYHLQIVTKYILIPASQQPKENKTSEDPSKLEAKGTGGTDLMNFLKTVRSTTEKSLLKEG

Turning to `NS(=O)(=O)NCCNc1nonc1/C(=N/O)Nc1ccc(F)c(Br)c1` [EPACADOSTAT], the result in the assay on HCT-116 [1] was inactive. The inhibition entry in the assay on Mus musculus [2], in the assay with Mus musculus [3], in the assay with Mus musculus [5], in the assay on Mus musculus [6], in the assay on Mus musculus [9] and with Mus musculus [10] was “inactive” in each case. The concentration for half-maximal inhibition (IC50) in the assay with CT26 [4] was determined as 47.1 µM; in the assay on HCT-116 [7], 37.1 µM; in the assay with HT-29 it was 63 µM. For the same molecule, the inhibition in vivo at 50 mg/kg with CT26 [8] was 49.4%.

The molecule `C[C@]1([C@H](O)C[C@H]2c3c(F)cccc3-c3cncn32)CC[C@H](O)CC1` came in with an IC50 in assay [11] of 0.007 µM.

In the case of `CCOC(=O)N1CCC2(CC1)C[C@H](NC(=O)c1cccc3cn[nH]c13)c1cc(Br)ccc1O2`, the IC50 in assay [12] is 0.0054 µM.
